# Results reported in paper PMC9612054, “Experimental and Computational Analysis of Newly Synthesized Benzotriazinone Sulfonamides as Alpha-Glucosidase Inhibitors” (Molecules, 2022).
# Tests used:
# [1] = Solubility (physiochemical properties); assay type: physicochemical; settings: solvents in which the compound is soluble
# alpha-glucosidase = target: alpha-glucosidase; parameters: method as in doi:10.1007/s00044-022-02883-1; settings: earlier series; cited from earlier work
# [2] = target: T1, alpha-Glucosidase (Cat No. 5003-1KU Type I) (Saccharomyces cerevisiae, UniProt P53341); assay: biochemical; settings: for inhibition at 500 µM: pH 6.8, read-out: % Inhibition at 0.5 mM
# T1 construct: purchased 5003-1KU Type I
# T1 sequence (P53341 whole entry): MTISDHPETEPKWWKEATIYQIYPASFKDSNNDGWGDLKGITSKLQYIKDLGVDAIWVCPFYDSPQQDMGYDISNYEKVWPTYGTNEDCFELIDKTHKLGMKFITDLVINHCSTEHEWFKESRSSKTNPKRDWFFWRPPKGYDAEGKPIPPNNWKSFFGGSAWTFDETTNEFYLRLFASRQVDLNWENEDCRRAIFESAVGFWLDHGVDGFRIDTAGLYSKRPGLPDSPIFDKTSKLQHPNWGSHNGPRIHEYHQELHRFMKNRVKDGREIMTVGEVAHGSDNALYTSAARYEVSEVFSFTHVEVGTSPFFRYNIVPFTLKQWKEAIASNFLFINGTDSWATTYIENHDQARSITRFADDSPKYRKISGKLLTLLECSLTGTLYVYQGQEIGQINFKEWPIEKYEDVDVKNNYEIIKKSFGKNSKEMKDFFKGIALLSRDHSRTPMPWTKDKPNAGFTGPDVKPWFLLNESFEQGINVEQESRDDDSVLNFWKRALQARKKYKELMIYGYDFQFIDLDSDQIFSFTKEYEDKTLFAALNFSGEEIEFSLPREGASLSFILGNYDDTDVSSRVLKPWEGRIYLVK
# Protocol: It actively works in the intestinal tract by inhibiting alpha-glucosidase, which is responsible for the conversion of complex carbohydrates to absorbable glucose. […] Therefore, an alpha-glucosidase inhibition assay of newly synthesized amino benzotriazinones 11a–11b and their corresponding sulfonamides 12a–12f was carried out by spectrophotometric method.
# Alpha-glucosidase inhibition activity was carried out by the Pierre et al. method with slight modifications, and alpha-Glucosidase (Cat No. 5003-1KU Type I) from Saccharomyces cereviciae was utilized for the experimental protocol due to its resemblances to the structure and function of yeast/mammalian enzyme. For test, saline phosphate buffer (70 μL, 50 mM with pH 6.8), alpha-glucosidase enzyme (10 μL, 0.0234 units) and test compound (10 μL, 0.5 mM) were taken in test tubes and incubated for 10 min at 37 °C. Absorbance of these prepared samples was recorded at 400 nm. 10 μL p-nitrophenyl-alpha-D-glucopyranoside (0.5 mM, ‘substrate’, code No. N1377 from Sigma) was used to initiate the reaction and test tubes were allowed to stand for 30 min. Then, the variation in concentration of free substrate was noted by the change in absorbance. The enzyme percentage inhibition was estimated by the following formula and IC50 values were calculated by ‘EZ-Fit enzyme kinetics software. % Inhibition = [([…])/Abs. of control] × 100
Compound,Solubility [1],IC50 (alpha-glucosidase) [µM],melting point [°C],inhibition at 500 µM [2] [%],IC50 [2] [µM],"% Inhibition at 0.5 mM ([2]; test compound 0.5 mM, pH 6.8, 37 °C) [%]"
6-Nitroisatoic Anhydride [Compound 8],"Ethanol, DMSO",–,–,–,–,–
Cc1ccc(NS(=O)(=O)c2ccc(-n3nnc4ccccc4c3=O)cc2)cc1C [Compound 4],–,29.75 ± 0.14,–,–,–,–
"CCCNC(=O)c1cc([N+](=O)[O-])ccc1N [Compound 9a, 2-Amino-5-nitro-N-propylbenzamide]","Ethanol, DMSO",–,195 to 197,–,–,–
"CCCCNC(=O)c1cc([N+](=O)[O-])ccc1N [Compound 9b, 2-Amino-5-nitro-N-butylbenzamide]","Ethanol, DMSO",–,197 to 199,–,–,–
"CCCn1nnc2ccc([N+](=O)[O-])cc2c1=O [Compound 10a, 6-Nitro-3-propylbenzo[1,2,3]triazin-4(3H)-one]","Ethanol, DMSO",–,215 to 217,–,–,–
"CCCCn1nnc2ccc([N+](=O)[O-])cc2c1=O [Compound 10b, 6-Nitro-3-butylbenzo[1,2,3]triazin-4(3H)-one]","Ethanol, DMSO",–,217 to 218,–,–,–
"CCCn1nnc2ccc(N)cc2c1=O [Compound 11a, 6-Amino-3-propylbenzo[1,2,3]triazin-4(3H)-one]","Methanol, DMSO",–,185 to 186,26.12 ± 0.13,–,–
"CCCCn1nnc2ccc(N)cc2c1=O [Compound 11b, 6-Amino-3-butylbenzo[1,2,3]triazin-4(3H)-one]","Methanol, DMSO",–,191 to 192,27.12 ± 0.13,–,–
"CCCn1nnc2ccc(NS(=O)(=O)c3ccccc3)cc2c1=O [Compound 12a, N-(4-Oxo-3-propyl-3,4-dihydrobenzo[1,2,3]triazin-6-yl)benzenesulfonamide]","Ethanol, DMSO",–,171 to 173,51.25 ± 0.16,–,–
"CCCn1nnc2ccc(NS(=O)(=O)c3ccc(OC)cc3)cc2c1=O [Compound 12b, 4-Methoxy-N-(4-oxo-3-propyl-3,4-dihydrobenzo[1,2,3]triazin-6-yl)benzenesulfonmide]","Ethanol, DMSO",–,175 to 177,91.73 ± 0.17,39.21 ± 0.12,–
"CCCn1nnc2ccc(NS(=O)(=O)c3ccc(Cl)cc3)cc2c1=O [Compound 12c, 4-Chloro-N-(4-oxo-3-propyl-3,4-dihydrobenzo[1,2,3]triazin-6-yl)benzenesulfonamide]","Ethanol, DMSO",–,169 to 171,78.12 ± 0.16,53.76 ± 0.14,–
"CCCn1nnc2ccc(NS(=O)(=O)c3ccc(Br)cc3)cc2c1=O [Compound 12d, 4-Bromo-N-(4-oxo-3-propyl-3,4-dihydrobenzo[1,2,3]triazin-6-yl)benzenesulfonamide]","Ethanol, DMSO",–,–,79.42 ± 0.15,55.21 ± 0.12,–
"CCCn1nnc2ccc(NS(=O)(=O)c3ccc([N+](=O)[O-])cc3)cc2c1=O [Compound 12e, 4-Nitro-N-(4-oxo-3-propyl-3,4-dihydrobenzo[1,2,3]triazin-6-yl)benzenesulfonamide]","Ethanol, DMSO",–,167 to 169,96.27 ± 0.19,32.37 ± 0.15,–
"CCCCn1nnc2ccc(NS(=O)(=O)c3ccc([N+](=O)[O-])cc3)cc2c1=O [Compound 12f, 4-Nitro-N-(4-oxo-3-butyl-3,4-dihydrobenzo[1,2,3]triazin-6 yl)benzenesulfonamide]","Ethanol, DMSO",–,179 to 181,93.27 ± 0.14,37.75 ± 0.11,–
"C[C@H]1O[C@H](O[C@H]2[C@H](O)[C@@H](O)[C@@H](O[C@H]3[C@H](O)[C@@H](O)C(O)O[C@@H]3CO)O[C@@H]2CO)[C@H](O)[C@@H](O)[C@@H]1N[C@H]1C=C(CO)[C@@H](O)[C@H](O)[C@H]1O (stereo partly shown) [acarbose, reference compound]",–,–,–,–,–,92.23 ± 0.16
Isatoic Anhydride [Compound 7],"Ethanol, DMSO",–,–,–,–,–
